Experiment: Treatment-emergent adverse events, three Phase 3 double-blind studies, LMTM pooled safety population
Type: in vivo, human
Text: Three Phase 3, double-blind, controlled studies of LMTM have been completed (one each in subjects with mild and mild to moderate AD and one in subjects with bvFTD). Results of the AD studies have been published (Gauthier et al., 2016; Wilcock et al., 2018).
In these three studies, 1897 subjects received at least one dose of LMTM (Safety Population [Five additional subjects with AD, participating at one site in Study TRx-237-005, received a dose of study drug but were excluded from all analyses due to GCP violations], 1679 subjects with AD and 218 subjects with bvFTD). Of these, 860 subjects received the control (LMTM 8 mg/day, 750 with AD and 110 with bvFTD) and 1037 subjects received at least one dose of LMTM in the higher doses of 150 to 250 mg/day (929 with AD and 108 with bvFTD).
The incidence of the most common TEAEs are summarised by dose in the following Table EX1. This includes TEAEs that occurred at an incidence of ≥2.0% either in subjects randomised to LMTM 8 mg/day or higher doses (150 to 250 mg/day). The subset of TEAEs that were severe in intensity are also included.
The TEAEs are further analysed by using groupings of related MedDRA (Medical Dictionary for Regulatory Activities) preferred terms to better estimate the incidence of potentially treatment related adverse events. The incidence of all groupings for subjects categorised by dose (8 mg/day versus higher doses of 150 to 250 mg/day) is shown in the following Table EX2: […]

[1] = Higher Doses (150-250 mg/day) (N = 1037)
[2] = Higher Doses (150-250 mg/day) (N = 1037), All
[3] = Higher Doses (150-250 mg/day) (N = 1037), Severe Intensity

## CN(C)c1ccc2c(c1)Sc1cc(N(C)C)ccc1N2 [LMTM, leuco-methylthioninium bis(hydromethanesulfonate)]
[1]
  Grouped TEAE incidence: Affective/Anxiety Symptoms: 55 (5.3%) n (%)
  Grouped TEAE incidence: Anaemia: 219 (21.1%) n (%)
  Grouped TEAE incidence: Behavioral Symptoms: 118 (11.4%) n (%)
  Grouped TEAE incidence: Falls and Related Terms: 202 (19.5%) n (%)
  Grouped TEAE incidence: Hepatic Function Impairment: 34 (3.3%) n (%)
  Grouped TEAE incidence: Hypersensitivity: 63 (6.1%) n (%)
  Grouped TEAE incidence: Ischaemic Events, Inclusive of Myocardial Infarction: 35 (3.4%) n (%)
  Grouped TEAE incidence: Psychotic Symptoms: 34 (3.3%) n (%)
  Grouped TEAE incidence: Renal Function Impairment: 42 (4.1%) n (%)
  Grouped TEAE incidence: Renal and Urinary Disorders (Including Infections): 326 (31.4%) n (%)
  Grouped TEAE incidence: Sleep Disorders: 48 (4.6%) n (%)
  Grouped TEAE incidence: Targeted Gastrointestinal Events: 401 (38.7%) n (%)
[2]
  No. (%) of Subjects Reporting at Least One TEAE: 902 (87.0%) n (%)
  TEAE incidence: Abdominal pain: 30 (2.9%) n (%)
  TEAE incidence: Abdominal pain upper: 21 (2.0%) n (%)
  TEAE incidence: Agitation: 61 (5.9%) n (%)
  TEAE incidence: Anaemia: 59 (5.7%) n (%)
  TEAE incidence: Anxiety: 39 (3.8%) n (%)
  TEAE incidence: Arthralgia: 31 (3.0%) n (%)
  TEAE incidence: Atrial fibrillation: 10 (1.0%) n (%)
  TEAE incidence: Back pain: 44 (4.2%) n (%)
  TEAE incidence: Blood creatine phosphokinase increased: 31 (3.0%) n (%)
  TEAE incidence: Blood folate decreased: 76 (7.3%) n (%)
  TEAE incidence: Bronchitis: 19 (1.8%) n (%)
  TEAE incidence: Cerebral microhaemorrhage: 16 (1.5%) n (%)
  TEAE incidence: Confusional state: 45 (4.3%) n (%)
  TEAE incidence: Constipation: 24 (2.3%) n (%)
  TEAE incidence: Contusion: 15 (1.4%) n (%)
  TEAE incidence: Cough: 42 (4.1%) n (%)
  TEAE incidence: Decreased appetite: 39 (3.8%) n (%)
  TEAE incidence: Dehydration: 18 (1.7%) n (%)
  TEAE incidence: Depression: 37 (3.6%) n (%)
  TEAE incidence: Diarrhoea: 278 (26.8%) n (%)
  TEAE incidence: Dizziness: 64 (6.2%) n (%)
  TEAE incidence: Dysuria: 75 (7.2%) n (%)
  TEAE incidence: Fall: 78 (7.5%) n (%)
  TEAE incidence: Fatigue: 38 (3.7%) n (%)
  TEAE incidence: Folate deficiency: 45 (4.3%) n (%)
  TEAE incidence: Haemoglobin decreased: 34 (3.3%) n (%)
  TEAE incidence: Hallucination: 21 (2.0%) n (%)
  TEAE incidence: Headache: 61 (5.9%) n (%)
  TEAE incidence: Hypertension: 22 (2.1%) n (%)
  TEAE incidence: Insomnia: 32 (3.1%) n (%)
  TEAE incidence: Laceration: 14 (1.4%) n (%)
  TEAE incidence: Micturition urgency: 35 (3.4%) n (%)
  TEAE incidence: Nasopharyngitis: 43 (4.1%) n (%)
  TEAE incidence: Nausea: 86 (8.3%) n (%)
  TEAE incidence: Oedema peripheral: 20 (1.9%) n (%)
  TEAE incidence: Pain in extremity: 17(1.6%) n (%)
  TEAE incidence: Pollakiuria: 71 (6.8%) n (%)
  TEAE incidence: Rash: 30 (2.9%) n (%)
  TEAE incidence: Suicidal ideation: 30 (2.9%) n (%)
  TEAE incidence: Syncope: 28 (2.7%) n (%)
  TEAE incidence: Tremor: 13 (1.3%) n (%)
  TEAE incidence: Upper respiratory tract infection: 34 (3.3%) n (%)
  TEAE incidence: Urinary incontinence: 63 (6.1%) n (%)
  TEAE incidence: Urinary tract infection: 116 (11.2%) n (%)
  TEAE incidence: Vitamin B12 decreased: 21 (2.0%) n (%)
  TEAE incidence: Vomiting: 80 (7.7%) n (%)
  TEAE incidence: Weight decreased: 39 (3.8%) n (%)
[3]
  No. (%) of Subjects Reporting at Least One TEAE: 126 (12.2%) n (%)
  TEAE incidence: Abdominal pain: 1 (0.1%) n (%)
  TEAE incidence: Abdominal pain upper: 0 n (%)
  TEAE incidence: Agitation: 7 (0.7%) n (%)
  TEAE incidence: Anaemia: 0 n (%)
  TEAE incidence: Anxiety: 2 (0.2%) n (%)
  TEAE incidence: Arthralgia: 1 (0.1%) n (%)
  TEAE incidence: Atrial fibrillation: 2 (0.2%) n (%)
  TEAE incidence: Back pain: 2 (0.2%) n (%)
  TEAE incidence: Blood creatine phosphokinase increased: 0 n (%)
  TEAE incidence: Blood folate decreased: 0 n (%)
  TEAE incidence: Bronchitis: 0 n (%)
  TEAE incidence: Cerebral microhaemorrhage: 0 n (%)
  TEAE incidence: Confusional state: 2 (0.2%) n (%)
  TEAE incidence: Constipation: 1 (0.1%) n (%)
  TEAE incidence: Contusion: 0 n (%)
  TEAE incidence: Cough: 0 n (%)
  TEAE incidence: Decreased appetite: 1 (0.1%) n (%)
  TEAE incidence: Dehydration: 2 (0.2%) n (%)
  TEAE incidence: Depression: 2 (0.2%) n (%)
  TEAE incidence: Diarrhoea: 14 (1.4%) n (%)
  TEAE incidence: Dizziness: 2 (0.2%) n (%)
  TEAE incidence: Dysuria: 1 (0.1%) n (%)
  TEAE incidence: Fall: 7 (0.7%) n (%)
  TEAE incidence: Fatigue: 1 (0.1%) n (%)
  TEAE incidence: Folate deficiency: 0 n (%)
  TEAE incidence: Haemoglobin decreased: 0 n (%)
  TEAE incidence: Hallucination: 4 (0.4%) n (%)
  TEAE incidence: Headache: 3 (0.3%) n (%)
  TEAE incidence: Hypertension: 1 (0.1%) n (%)
  TEAE incidence: Insomnia: 0 n (%)
  TEAE incidence: Laceration: 1 (0.1%) n (%)
  TEAE incidence: Micturition urgency: 0 n (%)
  TEAE incidence: Nasopharyngitis: 0 n (%)
  TEAE incidence: Nausea: 1 (0.1%) n (%)
  TEAE incidence: Oedema peripheral: 0 n (%)
  TEAE incidence: Pain in extremity: 0 n (%)
  TEAE incidence: Pollakiuria: 2 (0.2%) n (%)
  TEAE incidence: Rash: 0 n (%)
  TEAE incidence: Suicidal ideation: 0 n (%)
  TEAE incidence: Syncope: 5 (0.5%) n (%)
  TEAE incidence: Tremor: 0 n (%)
  TEAE incidence: Upper respiratory tract infection: 0 n (%)
  TEAE incidence: Urinary incontinence: 1 (0.1%) n (%)
  TEAE incidence: Urinary tract infection: 3 (0.3%) n (%)
  TEAE incidence: Vitamin B12 decreased: 0 n (%)
  TEAE incidence: Vomiting: 3 (0.3%) n (%)
  TEAE incidence: Weight decreased: 0 n (%)
LMTM 8 mg/day (N = 860)
  Grouped TEAE incidence: Affective/Anxiety Symptoms: 60 (7.0%) n (%)
  Grouped TEAE incidence: Anaemia: 111 (12.9%) n (%)

— patent US12263175B2, “Optimised dosage of diaminophenothiazines in populations” (WisTa Laboratories Ltd., priority 2018, dated 2025)
